Data: BindingDB's records for patent US12226405 (Novartis, 2025)

Molecular target: Endothelial PAS domain-containing protein 1 (Homo sapiens, UniProt Q99814)
Experiment: Scintillation Proximal Assay (SPA)
Method: Compounds (tested using a 14-point dose response with 3-fold compound dilutions from 100 μM to 60 pM) were pre-incubated for 30 min with HIF2α PAS-B domain (236-350, biotinylated on the N-terminus), before addition of the radio-ligand. […] Duplicates were made using 2 different plates, and mean IC50 values were determined using the Helios system based on the following equation: % inhibition=[(high control−sample)/(high control−low control)]×100. The IC50 values in the Tabulated HIF2α activities are the average from 1 to 10 independent experiments.

Endothelial PAS domain-containing protein 1, sequence (Q99814 whole entry, the tested form may be a part): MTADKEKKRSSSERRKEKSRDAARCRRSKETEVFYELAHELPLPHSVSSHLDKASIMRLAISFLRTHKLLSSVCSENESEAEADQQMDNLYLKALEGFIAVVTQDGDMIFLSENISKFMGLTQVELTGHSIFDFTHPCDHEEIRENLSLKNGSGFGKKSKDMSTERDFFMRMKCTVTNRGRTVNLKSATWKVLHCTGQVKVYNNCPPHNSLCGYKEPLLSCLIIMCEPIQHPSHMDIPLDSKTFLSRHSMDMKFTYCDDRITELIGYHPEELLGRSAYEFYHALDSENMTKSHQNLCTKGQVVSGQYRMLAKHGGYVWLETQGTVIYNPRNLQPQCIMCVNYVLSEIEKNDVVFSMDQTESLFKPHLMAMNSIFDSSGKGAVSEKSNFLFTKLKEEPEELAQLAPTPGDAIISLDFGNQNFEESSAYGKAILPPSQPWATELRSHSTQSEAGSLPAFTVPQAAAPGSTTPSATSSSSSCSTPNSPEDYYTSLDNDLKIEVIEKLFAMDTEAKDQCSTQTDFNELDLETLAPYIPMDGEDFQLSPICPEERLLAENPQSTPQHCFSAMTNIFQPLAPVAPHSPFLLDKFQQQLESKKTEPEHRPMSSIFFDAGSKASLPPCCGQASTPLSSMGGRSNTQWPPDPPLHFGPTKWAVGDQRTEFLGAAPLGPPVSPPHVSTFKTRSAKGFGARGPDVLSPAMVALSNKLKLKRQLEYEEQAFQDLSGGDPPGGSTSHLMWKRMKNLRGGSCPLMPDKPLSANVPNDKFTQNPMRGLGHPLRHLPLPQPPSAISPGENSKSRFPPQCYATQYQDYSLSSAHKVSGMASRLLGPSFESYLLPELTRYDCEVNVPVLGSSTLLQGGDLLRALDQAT

With `FC(F)OC1=CC(C(F)(F)F)=CN2C[C@@]3(CCc4cc(C(F)(F)F)ccc43)N=C12` [US12226405, Example 6] as the compound, how does the IC50 read?
Its IC50 is 8 nM.
